“Also recorded” adds a separate entry of the source.
Experiments:
hMNC [1] = assay: hMNC proliferation cultured with PGE2; type: cell-based, human; conditions: PGE2 at a concentration of 10 ng/mL or higher
Procedure: (§1) In order to investigate the effect of PGE2 on mononuclear cell (MNC) proliferation, hMNC and mouse splenocytes were cultured with various concentrations of PGE2. The experiment was performed by the same method described in Example 5-5.

mouse splenocytes [2] = assay: Mouse splenocyte proliferation cultured with PGE2; type: cell-based; conditions: PGE2 at a concentration of 10 ng/mL or higher
Procedure: as §1

human MNC = assay: Human MNC proliferation under direct cell to cell contact with hUCB-MSC; type: cell-based; conditions: direct cell to cell interaction
Excerpt: In the present experiment, the inventors investigated whether TLR and NLR agonists enhance the suppressive activity of hUCB-MSC against human […] proliferation. Based on the study that identified the importance of a direct interact ion between MSCs and lymphocytes in inhibition of lymphocyte proliferation by MSCs, the present inventors investigated whether MDP has an effect on the suppressive ability of hUCB-MSCs against MNC proliferation under the conditions where two cell groups are in contact with each other.

MNC = MNC proliferation in culture medium/supernatant of agonist-treated hUCB-MSC; type: cell-based, human; conditions: for MNC proliferation in culture medium of agonist-treated hUCB-MSC: hUCB-MSC #618, MNC cultured 3 days
Procedure: Soluble factors are also known to mediate immunosuppression by MSC. So the present inventors examined whether secretory factors generated by UCB-MSCs have an effect on human MNC proliferation. Culture medium (CM) was prepared, and hUCB-MSCs were co-cultured with the agonist for 24 hours. After washing, the cells were cultured fresh for additional […]. Then, a control group containing culture medium (CM) and sample of hUCB-MSCs treated with agonist (#613) were prepared, and MNCs were cultured in CM containing hUCB-MSCs for 3 days.
To determine whether MDP enhances the immunosuppressive activity of in UCB-MSC, the following experiment was performed. A control group containing culture medium (CM) of hUCB-MSC was prepared and the agonist-treated hUCB-MSCs were collected on the 5th day of culturing. Then, MNC was co-cultured in CM of hUCB-MSC for 3 days more, and after culturing, the level of MNC proliferation was monitored.
Additionally, to investigate the correlation among NOD2, Rip2 and MDP in MNC inhibition, the following experiment was conducted using siRNAs of […] and Rip2 and a control group (siCTL). When the cell density reached 60%, siRNAs were transfected into the cells. The siRIPK2 (M-003602-02) which is the siRNA of receptor-interacting serine-threonine kinase 2 (RIPK2 or receptor interacting kinase protein 2 (Rip2) which is the adaptor of […] and NOD2 and the type of kinase called RICK or CARDIAK (Bertin et al, 1999; Inohara et al, 1999; Ogura et al, 2001b)), siNOD2 (J-011338-07) which is the siRNA of NOD2, and a non-targeting control (siControl #1, D-001810-01) were purchased from Dharmacon (Chicago, Ill., USA). DharmaFECT1 (Dharmacon) was used as a transfection reagent, and siRNA was transfected at a concentration of 100 nmol/L. About 48 hours later, the medium was replaced with the fresh one, and the cells were treated with 10 μg/mL of MDP (NOD2 agonist) for 24 hours, except for a negative control (culture medium of MNC only) and a positive control (medium added with UCB-MSC supernatant (UMS) without agonist).
That is, a medium where MNC was cultured alone (i), and a medium added with UCB-MSC supernatant (UMS) without agonist (ii) were prepared as control groups, and a medium treated with MDP and UMS (iii), a medium treated with MDP, UMS, and control siRNA (siCTL) (iv), a medium treated with MDP, UMS and siNOD2 (v), and a medium treated with MDP, UMS, and siRip2 (vi) were prepared. Thereafter, MNC proliferation was measured by optical density at the wavelength of 450 nm.
In order to investigate the role of PGE2 in inhibition of MNC by hUCB-MSC, MNC proliferation was examined when treated with the MSC supernatant, MDP-treated MSC supernatant, and MDP and indomethacin (COX-2 inhibitor)-treated MSC supernatant. The experiment was performed by the same method described in Example 3.

hUCB-MSCs [3] = assay: IL-8 production in hUCB-MSCs after stimulation by receptor agonists (ELISA); type: cell-based, human; conditions: 24 hours with agonist
Procedure: After conforming the expression of the receptors of interest in hUCB-MSC in Example 2-1, the functionality of the receptors investigated by monitoring IL-8 production after stimulation by agonists. For this experiment, hUCB-MSCs were cultured at a density of 2×10^4 cells/well in KSFM medium supplemented with 2% FBS in a 96-well plate. After 24 hours of culturing, the cells were treated with the following agonists corresponding to each of the receptors, i.e., Pam3CSK4 (TLR2 agonist, Pam3), LPS (TLR4 agonist), Tri-DAP (NOD1 agonist, T-DAP), and MDP (NOD2 agonist). Then the samples were incubated for additional 24 hours. The supernatant of each culture was collected, centrifuged, and filtered through a 0.2 μm filter. Then, concentrations of IL-8 and PGE2 were measured using an ELISA kit (R&D Systems, Minneapolis, Minn., USA). Ultrapure LPS (E. coli O111:B4), Pam3CSK4, and Tri-DAP were purchased from Invivogen (San Diego, Calif., USA), MDP [Ac-(6-O-stearoyl)-muramyl-Ala-D-Glu-NH2; muramyl dipeptide] was purchased from Bachem (Bubendorf, Switzerland). Recombinant human Interferon-γ was purchased from Peprotech (Rockyhill, N.J., USA).

hMNC [4] = assay: IL-10 production by MNC cultured with UCB-MSC supernatant and ConA (ELISA); type: cell-based, human
Procedure: In order to determine the production level of IL-10, hUCB-MSCs (1×10^5 cells/well) were cultured in MSC medium supplemented with 2% FBS in a 24 well plate. About 24 hours later, the cells were treated with siNOD2 or indomethacin (Indo), and further cultured for 24 hours. Then the cells were washed five times, and fresh RPMI was added. After 5 days of culturing, UCB-MSC supernatant (UMS) was obtained. MNCs (1×10^6/well) were cultured with UMS and ConA (Sigma (St. Louis Mo., USA)). After 3 days of culturing, cell supernatant was collected, centrifuged, and filtered through a 0.2 μm filter. Then, IL-10 concentration was measured using an ELISA kit (R&D Systems, Minneapolis, Minn., USA).
PGE2 produced in bone marrow stromal cells is known to take an important role in IL-10 production by host macrophages (Nemeth, K., A. et al., Bone marrow stromal cells attenuate sepsis via prostaglandin E(2)-dependent reprogramming of host macrophages to increase their interleukin-10 production. Nat Med 15:42-49, 2009). MDP induces PGE2 production in hUCB-MSCs, and thus the present inventors examined whether IL-10 production in hMNCs is increased in the presence of MDP-UCM. The experiment was performed by the same method described in Example 5-6.

hMNCs = assay: Treg population (CD4, CD25, Foxp3) in hMNCs cultured with UCM, flow cytometry; type: cell-based, human
Procedure: Next, the present inventors investigated the effect of UCM on differentiation of hMNC into regulatory T cells (Treg). For this, hMNCs were cultured with UCM for 5 days, and co-expression of CD4, CD25, and Foxp3 in hMNCs was determined by Flow cytometry.

hUCB-MSCs [5] = assay: PGE2 secretion by hUCB-MSCs (ELISA); type: cell-based, human
Procedure: The hUCB-MSCs (2×10^4 cells/well) were cultured in MSC medium supplemented with 2% FBS in a 96-well plate. After 24 hrs of culturing, the cells were treated with 1 μg/mL Pam3CSK4 (TLR2 agonist), 1 μg/mL LPS (TLR4 agonist), 10 μg/mL Tri-DAP (NOD1 agonist) or 10 μg/mL MDP (NOD2 agonist) and cultured for additional 24 hours, then the culture supernatant of each sample was collected. After centrifugation, the culture supernatants were filtered through a 0.2 μm filter. Then, PGE2 concentration was measured using an ELISA kit (R&D Systems, Minneapolis, Minn., USA) following the manufacture's protocol.
To determine the sustainment time of the effects of MDP treatment, the amount of PEG2 produced was monitored after 1 day-long treatment of hUCB-MSCs with MDP. In this experiment, MDP was removed after 1 day of culturing by removing the culture medium and washing the cells with phosphate buffered saline (PBS) 5 times. Then the amount of PEG2 produced was measured. Meanwhile, cells were treated with MDP by the same method described in Example 5-1, and PGE2 concentration was measured. Also, in order to determine the effects of NOD2, Rip2 and COX-2 on PGE2 expression, the cells were treated with each of the control group of Example 3-3 i.e. siRNA (siCTL), siNOD2, siRip2 and COX-2 inhibitor called indomethacin (Sigma (St. Louis, Mo., USA).
(§2) Soluble factors such as hepatocyte growth factor, TGF-β1, indoleamine 2,3 dioxygenase-1 (IDO-1), nitric oxide (NO), and prostaglandin E2 (PGE2) are the strong candidates for regulating immunosuppression by MSC. In order to determine whether TLR and NLR agonists induce the production of soluble factors including NO, PGE2 and TGF-β1 in hUCB-MSCs, the cells were cultured with Pam3CSK4, LPS, Tri-DAP, and MDP for 24 hours, and culture supernatants were collected. Secretion of the soluble factors was monitored by the method described in Examples 5-1 and 5-2.

mouse splenocytes [6] = assay: Xenogeneic mouse splenocyte proliferation in hUCB-MSC culture medium; type: cell-based
hUCB-MSCs [7] = assay: TGF-β1 production by hUCB-MSCs; type: cell-based, human; conditions: 24 hours with agonist
Procedure: as §2

COX-2 = COX-2 expression in hUCB-MSCs (immunoblot); type: cell-based, human; conditions: 24 hours with agonist
Procedure: Cells were treated with 1 μg/mL Pam3CSK4 (TLR2 agonist), 1 μg/mL LPS (TLR4 agonist), 10 μg/mL Tri-DAP (NOD1 agonist) or 10 μg/mL MDP (NOD2 agonist) and cultured for 24 hours. Then, the collected cells were lysed using 1% Nonidet-P40 buffer containing 2 mM dithiothreitol and protease cocktail (Roche, US). The cell lysates were resolved by 12% SDS-PAGE, and transferred onto a nitrocellulose membrane. Then, immunostaining was performed using primary antibodies (COX-2, GAPDH (Santa Cruz biotechnology, Santa Cruz, Calif., USA)). Thereafter, immunostaining was performed using secondary antibodies, and proteins were detected using an enhanced chemiluminescence (ECL) reagent (Intron Biotechnology).
To investigate a correlation between COX-2 expression and the function of NOD2 and Rip2, cells were first treated with MDP and further treated with siNOD2 and siRip2. Then the COX-2 expression level was examined. Protein expression level was measured by using the method described in Example 5-2, and the method for siRNA treatment was the same as described in Example 3-3.

Compound: CCCCC[C@H](O)/C=C/[C@H]1[C@H](O)CC(=O)[C@@H]1C/C=C\CCCC(=O)O [PGE2, (5Z, 11(alpha),13E,15S)-11,15-dihydroxy-9-oxo-prosta-5,13-dien-1-oic acid]
- proliferation of hMNC (hMNC [1]): remarkably inhibited
- proliferation of mouse splenocytes (mouse splenocytes [2]): remarkably inhibited

Compound: C[C@H](N)C(=O)N[C@H](CCC(=O)NC(CCCC(N)C(=O)O)C(=O)O)C(=O)O (stereo partly shown) [Tri-DAP, Tri-diaminopimelic Acid]
- effect of agonist on suppressive activity of hUCB-MSCs against MNC proliferation (human MNC): did not affect the suppressive activity of hUCB-MSCs against MNC proliferation
- MNC proliferation in culture medium of agonist-treated hUCB-MSC (MNC): this effect was absent
- MNC proliferation in culture medium of agonist-treated hUCB-MSC (MNC; listed as T-DAP): only slightly inhibited
- IL-8 production (hUCB-MSCs [3]): increased IL-8 production in hUCB-MSCs in a dose-dependent manner

Compound: COc1ccc2c(c1)c(CC(=O)O)c(C)n2C(=O)c1ccc(Cl)cc1 [indomethacin]
- effect on MDP-increased IL-10 production by MNC (hMNC [4]): IL-10 production was suppressed; also recorded: reversed
- effect on the increase in Treg population by MDP-UCM (hMNCs): reversed
- effect on MDP-enhanced PGE2 production (hUCB-MSCs [5]; hUCB-MSCs / MDP-UCM): MDP-enhanced PGE2 production was inhibited
- effect on the inhibition of MNC proliferation by MDP-treated MSC culture medium (MDP-UCM) (MNC; co-treatment or siRNA of hUCB-MSC): MNC proliferation rate similar to that of the negative control group; also recorded: counteracted

Compound: Pam3CSK4
- effect of agonist on suppressive activity of hUCB-MSCs against MNC proliferation (human MNC): did not affect the suppressive activity of hUCB-MSCs against MNC proliferation
- MNC proliferation in culture medium of agonist-treated hUCB-MSC (MNC): this effect was absent
- MNC proliferation in culture medium of agonist-treated hUCB-MSC (MNC; listed as Pam3): only slightly inhibited
- IL-8 production (hUCB-MSCs [3]): increased IL-8 production in hUCB-MSCs in a dose-dependent manner

Compound: CCCCCCCCCCCCCCCCCC(=O)OCC1OC(O)C(NC(C)=O)C(OC(C)C(=O)NC(C)C(=O)NC(CCC(=O)O)C(N)=O)C1O [MDP, Ac-(6-O-stearoyl)-muramyl-Ala-D-Glu-NH2]
- proliferation of xenogeneic mouse splenocytes in UCM (mouse splenocytes [6]): this inhibitory effect was enhanced by MDP stimulation
- TGF-β1 production (hUCB-MSCs [7]): enhanced only by addition of MDP
- effect of agonist on suppressive activity of hUCB-MSCs against MNC proliferation (human MNC): did not affect the suppressive activity of hUCB-MSCs against MNC proliferation
- COX-2 expression (COX-2): enhanced COX-2 expression; also recorded: increased
- IL-10 production by MNC (hMNC [4]; MNC cultured 3 days with UCB-MSC supernatant and ConA): remarkably increased
- PGE2 production level after removal of MDP (hUCB-MSCs [5]; MDP removed after 1 day, 5th day of culturing): greater than that in the control group
- PGE2 secretion (hUCB-MSCs [5]; hUCB-MSCs, 24 hours with agonist (MDP 10 μg/mL)): significantly enhanced PGE2 secretion; also recorded: enhanced only by addition of MDP
- IL-8 production (hUCB-MSCs [3]): increased IL-8 production in hUCB-MSCs in a dose-dependent manner
